Test results from PubChem BioAssay AID256 (DTP/NCI, 2004).
“And” between values parts separate entries of the source, which are not always exact repeats. Equal values may be shown once. Inconclusive results and toxic doses are left out. The calls were made as follows: active = survival T/C of 150% or more; inactive = T/C below 125% in these data.

Test system: CD2F1 mice, L1210 leukemia ip, survival T/C
Test: NCI In Vivo Anticancer Drug Screen. Data for tumor model L1210 Leukemia (intraperitoneal) in CD2F1 (CDF1) mice
Conditions: endpoint: mean survival time, higher = longer survival
Summary of the method: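 Each value reflects a quotient of treated over vehicle control outcomes in mice with a transplanted tumor.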

[1] = dose: 100.0 mg/kg/injection, schedule: Q01DX009 (ip), vehicle: Klucel (hydroxypropylcellulose) (HPC)
[2] = dose: 200.0 mg/kg/injection, schedule: Q01DX009 (ip), vehicle: Klucel (hydroxypropylcellulose) (HPC)
[3] = dose: 100.0 mg/kg/injection, schedule: Q04DX003 (ip), vehicle: saline with Tween-80
[4] = dose: 200.0 mg/kg/injection, schedule: Q04DX003 (ip), vehicle: saline with Tween-80
[5] = dose: 400.0 mg/kg/injection, schedule: Q04DX003 (ip), vehicle: saline with Tween-80
[6] = dose: 50.0 mg/kg/injection, schedule: Q01DX009 (ip), vehicle: saline with Tween-80
[7] = dose: 100.0 mg/kg/injection, schedule: Q01DX009 (ip), vehicle: saline with Tween-80
[8] = dose: 200.0 mg/kg/injection, schedule: Q01DX009 (ip), vehicle: saline with Tween-80
[9] = dose: 100.0 mg/kg/injection, schedule: Q04DX002 (ip), vehicle: saline with Tween-80
[10] = dose: 200.0 mg/kg/injection, schedule: Q04DX002 (ip), vehicle: saline with Tween-80
[11] = dose: 400.0 mg/kg/injection, schedule: Q04DX002 (ip), vehicle: saline with Tween-80
[12] = dose: 400.0 mg/kg/injection, schedule: Q01DX009 (ip), vehicle: saline with Tween-80
[13] = dose: 100.0 mg/kg/injection, schedule: Q01DX001 (ip), vehicle: saline with Tween-80
[14] = dose: 200.0 mg/kg/injection, schedule: Q01DX001 (ip), vehicle: saline with Tween-80
[15] = dose: 400.0 mg/kg/injection, schedule: Q01DX001 (ip), vehicle: saline with Tween-80
[16] = dose: 100.0 mg/kg/injection, schedule: Q01DX001 (ip), vehicle: saline
[17] = dose: 200.0 mg/kg/injection, schedule: Q01DX001 (ip), vehicle: saline
[18] = dose: 400.0 mg/kg/injection, schedule: Q01DX001 (ip), vehicle: saline
[19] = dose: 25.0 mg/kg/injection, schedule: Q04DX003 (ip), vehicle: saline

Measured: T/C

CC(=O)OC1C(OC(C)=O)C(OC(C)=O)C2OC(C)(C)OC2C1OC(C)=O (configuration not stated)
inactive: [1] 96 % of control | [2] 93 % of control | dose: 400.0 mg/kg/injection, schedule: Q01DX009 (ip), vehicle: Klucel (hydroxypropylcellulose) (HPC) 100 % of control

CNC(=O)Oc1cccc(NC(=O)OCc2ccccc2)c1
inactive: [3] 99 % of control | [4] 96 % of control | [5] 92 % of control

Cc1ccc(S(=O)(=O)Nc2ccccc2)c(C(O)(c2ccccc2)c2ccccc2)c1
inactive: [3] 95 % of control | [4] 106 % of control | [5] 95 % of control

ClCCN(CCCl)c1ccc(CNCCCNCc2ccc(N(CCCl)CCCl)cc2)cc1
inactive: dose: 1.25 mg/kg/injection, schedule: Q01DX009 (ip), vehicle: saline sonified 118 % of control | dose: 2.5 mg/kg/injection, schedule: Q01DX009 (ip), vehicle: saline sonified 118 % of control | dose: 3.3 mg/kg/injection, schedule: Q01DX009 (ip), vehicle: saline sonified 117 % of control | dose: 5.0 mg/kg/injection, schedule: Q01DX009 (ip), vehicle: saline sonified 117 % of control | dose: 7.5 mg/kg/injection, schedule: Q01DX009 (ip), vehicle: saline sonified 121 % of control | dose: 10.0 mg/kg/injection, schedule: Q04DX003 (ip), vehicle: saline with Tween-80 120 % of control | dose: 20.0 mg/kg/injection, schedule: Q04DX003 (ip), vehicle: saline with Tween-80 121 % of control | dose: 40.0 mg/kg/injection, schedule: Q04DX003 (ip), vehicle: saline with Tween-80 120 % of control

O=C(N/N=C\c1ccc(Cl)cc1)c1ccccc1
inactive: [6] 94 % of control | [7] 101 % of control | [8] 95 % of control

COC1OC2COc3ccccc3OC2C(N)C1N(C)c1ccccc1 (configuration not stated)
inactive: dose: 75.0 mg/kg/injection, schedule: Q01DX001 (ip), vehicle: saline with Tween-80 100 % of control | dose: 150.0 mg/kg/injection, schedule: Q01DX001 (ip), vehicle: saline with Tween-80 97 % of control

Nc1ccc(CSc2ccccc2)cc1F
inactive: [3] 93 % of control | [4] 92 % of control | [5] 108 % of control

CC(C)OC(=O)Nc1ncn[nH]1
inactive: [9] 104 % of control | [10] 108 % of control | [11] 93 % of control

O=[N+]([O-])c1cc(Cl)cc2c1-c1ccc(Cl)cc1C2Br (configuration not stated)
inactive: dose: 50.0 mg/kg/injection, schedule: Q01DX001 (ip), vehicle: carboxymethylcellulose (CMC) 104 % of control | dose: 100.0 mg/kg/injection, schedule: Q01DX001 (ip), vehicle: carboxymethylcellulose (CMC) 98 % of control | dose: 200.0 mg/kg/injection, schedule: Q01DX001 (ip), vehicle: carboxymethylcellulose (CMC) 104 % of control | dose: 400.0 mg/kg/injection, schedule: Q01DX001 (ip), vehicle: carboxymethylcellulose (CMC) 104 % of control

NC(=O)NC1CCCCCC1
inactive: [7] 102 % of control | [8] 109 % of control | [12] 100 % of control

CC(OC(=O)c1ccccc1)c1ccccc1 (configuration not stated)
inactive: [7] 95 % of control | [3] 96 % of control | [8] 105 % of control | [4] 105 % of control | [12] 112 % of control | [5] 94 % of control

O=c1nc(N2CCOCC2)ccn1C1OC(CO)C(O)C1O (configuration not stated)
inactive: dose: 100.0 mg/kg/injection, schedule: Q01DX005 (ip), vehicle: water 104 % of control | dose: 200.0 mg/kg/injection, schedule: Q01DX005 (ip), vehicle: water 101 % of control | dose: 400.0 mg/kg/injection, schedule: Q01DX005 (ip), vehicle: water 107 % of control

Cc1ccc(C(C)(c2ccccc2)C(C)(CC=O)CC(=O)O)cc1 (configuration not stated)
inactive: [7] 95 % of control | [8] 94 % of control | [12] 97 % of control

COc1cc([N+](=O)[O-])ccc1NC(=O)NCCc1ccccc1
inactive: [13] 86 % of control and 97 % of control | [7] 90 % of control and 91 % of control | [9] 95 % of control | [3] 89 % of control | [14] 86 % of control and 91 % of control | [8] 91 % of control and 103 % of control | [10] 95 % of control | [4] 91 % of control | [15] 91 % of control | [12] 90 % of control and 91 % of control | [11] 90 % of control | [5] 89 % of control

CC1(C)CCC2(CC1)CC(=O)OC2=O
inactive: [7] 109 % of control | [8] 105 % of control | [12] 100 % of control

COC(=O)c1ccc(OCCOc2ccc(C(C)(C)CC(C)(C)C)cc2)c(N)c1
inactive: dose: 100.0 mg/kg/injection, schedule: Q04DX003 (ip), vehicle: Klucel (hydroxypropylcellulose) (HPC) 94 % of control | dose: 200.0 mg/kg/injection, schedule: Q04DX003 (ip), vehicle: Klucel (hydroxypropylcellulose) (HPC) 100 % of control | dose: 400.0 mg/kg/injection, schedule: Q04DX003 (ip), vehicle: Klucel (hydroxypropylcellulose) (HPC) 101 % of control

CCCCCCCCCCC(C)c1ccc(S(=O)(=O)O)cc1 (configuration not stated)
inactive: dose: 50.0 mg/kg/injection, schedule: Q01DX009 (ip), vehicle: saline sonified 97 % of control | dose: 100.0 mg/kg/injection, schedule: Q01DX009 (ip), vehicle: saline sonified 97 % of control | dose: 200.0 mg/kg/injection, schedule: Q01DX009 (ip), vehicle: saline sonified 102 % of control

CC12CCCC(CCCO)(C1)NC(=O)C2 (configuration not stated)
inactive: [16] 101 % of control | [17] 101 % of control | [18] 101 % of control

CSc1nc(N)c2c(ncn2C2OC(CO)C(O)C2O)n1 (configuration not stated)
inactive: [16] 105 % of control | [17] 100 % of control | [18] 97 % of control

CN(C)CCCNC(=S)S
inactive: dose: 6.0 mg/kg/injection, schedule: Q04DX003 (ip), vehicle: saline 95 % of control | dose: 12.0 mg/kg/injection, schedule: Q04DX003 (ip), vehicle: saline 93 % of control | [19] 106 % of control

O=[N+]([O-])c1cccc(Cc2nncc3ccccc23)c1
inactive: [7] 96 % of control | [8] 94 % of control | [12] 94 % of control

CC1(C)COC(CCc2ccccc2)=N1
inactive: [9] 108 % of control | [3] 104 % of control | [10] 101 % of control | [4] 93 % of control | [11] 101 % of control | [5] 86 % of control

O=C(c1ccccc1)c1ccc2cc(O)ccc2c1
inactive: [13] 102 % of control | [9] 94 % of control | [14] 92 % of control | [10] 90 % of control | [15] 96 % of control | [11] 86 % of control

C[CH2][Ge]([CH2]C)[CH2]C.C[CH2][Ge]([CH2]C)[CH2]C
inactive: dose: 50.0 mg/kg/injection, schedule: Q04DX003 (ip), vehicle: saline with Tween-80 104 % of control | [3] 100 % of control | [4] 104 % of control

CCN(CC)CCOc1ccc(NC(=O)c2ccccc2)cc1
inactive: dose: 6.25 mg/kg/injection, schedule: Q04DX003 (ip), vehicle: saline 101 % of control | dose: 12.5 mg/kg/injection, schedule: Q04DX003 (ip), vehicle: saline 101 % of control | [19] 104 % of control

CCCCCCCC/C=C\CCCCCCCCNP(=O)(OCCCCCCCCCCCC)OCCCCCCCCCCCC
inactive: dose: 50.0 mg/kg/injection, schedule: Q04DX002 (ip), vehicle: saline with Tween-80 93 % of control | [9] 96 % of control | [10] 89 % of control | [11] 100 % of control

CCC(=O)c1cc2c(cc1CC)C(C)(C)CCC2(C)C
inactive: dose: 50.0 mg/kg/injection, schedule: Q01DX001 (ip), vehicle: saline 93 % of control | [16] 93 % of control | dose: 100.0 mg/kg/injection, schedule: Q04DX003 (ip), vehicle: saline 101 % of control | [17] 93 % of control | dose: 200.0 mg/kg/injection, schedule: Q04DX003 (ip), vehicle: saline 97 % of control | [18] 91 % of control | dose: 400.0 mg/kg/injection, schedule: Q04DX003 (ip), vehicle: saline 90 % of control

O=P1(O)c2ccccc2Nc2ccccc21
inactive: dose: 50.0 mg/kg/injection, schedule: Q01DX009 (ip), vehicle: Klucel (hydroxypropylcellulose) (HPC) 104 % of control | [1] 93 % of control | [2] 108 % of control

Cn1c(CC(O)(C(F)(F)F)C(F)(F)F)cc(=O)n1-c1ccccc1
inactive: [3] 95 % of control | [4] 94 % of control

CC(C)(O)CN
inactive: dose: 25.0 mg/kg/injection, schedule: Q01DX009 (ip), vehicle: saline with Tween-80 95 % of control | [6] 98 % of control | [7] 91 % of control
